Measured values as given in patent EP2914280B1, “SOMATOSTATIN-DOPAMINE CHIMERIC ANALOGS” (IPSEN PHARMA S.A.S., priority 2012, dated 2014).
Where two headings read alike, the source gives them in different places. Numbered stars: 1 amine (or outer) side, 2 acyl side, 3 side chain; on linkers, the order of the positions; unused ones are H or OH. Bridge positions count the residues as written; N and C are the ends. Square brackets hold non-standard residues; d marks the D form. Peptide text beside a SMILES is read from it. * marks the point of attachment. X1 = CN1C[C@H](CSCCN(CCSC[C@@H]2C[C@@H]3c4cccc5[nH]cc(c45)C[C@H]3N(C)C2)[C@H](CCCCN[*:2])C(=O)[*:1])C[C@@H]2c3cccc4[nH]cc(c34)C[C@H]21; X2 = CN1C[C@H](CSCC(=O)*)C[C@@H]2c3cccc4[nH]cc(c34)C[C@H]21; Phe(4-F) = N[C@@H](Cc1ccc(F)cc1)C(=O)O; dDab = NCC[C@@H](N)C(=O)O

Tests used:
[1] = target: T1, hSSTR2 (Homo sapiens, UniProt P30874); assay: Somatostatin receptor radioligand binding assay (hSSTR2);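 note: radioligand displacement on membranes of CHO-K1 cells stably transfected with human SSTR2, specific binding taken as total minus binding left with 1000 nM SRIF-14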
T1 construct: host or cells: 'Cells expressing hSSTR2'
Method: The affinities of a test compound for the human somatostatin receptors were determined by radioligand binding assays in CHO-K1 cells stably transfected with each of the human somatostatin receptor subtypes, hSSTR1-5. […] Clonal cell lines stably expressing each of the somatostatin receptors were obtained by transfection into CHO-K1 cells (ATCC) and subsequently selected with culture media containing 0.8 mg/mL of G418 (Life Technologies).
Membranes for in vitro receptor binding assays were obtained by the following procedures. […] The supernatant containing the plasma membranes was centrifuged at 100,000 x g for 30 minutes and the pellet was resuspended in buffer containing 20 mM glycine-glycine, 1 mM MgCl2, 250 mM sucrose, pH 7.2, for storage at -80°C.
For the SSTR1, 2 and 5 assays, membranes and various concentrations of test compounds were incubated in 96-well plates for 60 minutes at 25°C with 0.05 nM [^125I-Tyr^11]-SRIF-14 (for hSSTR1; PerkinElmer Life Science), 0.05 nM [^125I-Tyr]-seglitide (for hSSTR2; PerkinElmer Life Science) or 0.05 nM [^125I-Tyr]-[DPhe-cyclo(Cys-Tyr-DTrp-Lys-Val-Cys)-Thr-NH2] (for hSSTR5; PerkinElmer Life Science) in 50 mM HEPES, 0.2% BSA, 0.1 mM MgCl2, pH 7.5.
The incubations were terminated by rapid filtration through GF/C glass microfiber filter plates (pre-wet with 0.3% polyethyleneimine and 0.1 % BSA) using a 96-well cell harvester (Brandel). Plates were washed six times with 1 mL/well aliquots of ice-cold buffer containing 50 mM Tris buffer, pH 7.7. Specific binding was defined as the total radioligand bound minus the bound in the presence of 1000 nM SRIF-14.

[2] = target: T2, hDRD2 (Homo sapiens, UniProt P14416); assay: biochemical; type: binding; design: expressed in transfected cells; host or cells: CHO-K1, pcDNA3.1/GS, zeocin-selected clonal line; membranes
[3] = target: T1, hSSTR2; assay: Intracellular calcium mobilization assay (FLIPR Calcium 4), hSSTR2; type: cell-based;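 note: agonist activity measured in cells expressing hSSTR2, seeded in 384-well plates, loaded with Calcium 4 dye, read-out as rise in intracellular calcium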
Method: (§1) The ability of select compounds according to the present invention to activate hSSTR2 and hDRD2 was determined by the intracellular calcium mobilization assay using FLIPR Calcium 4 assay kit (Molecular Devices).
(§2) Cells expressing hSSTR2 or hDRD2 were plated in 384-well microplates in tissue culture media and incubated for 16-24 hours at 37°C in a humidified atmosphere with 5% CO2. Medium was replaced by loading buffer containing Hank's buffered saline, 20 mM HEPES, 2.5 mM probenecid and Calcium 4 dye, and the plates were incubated at 37°C for 60 minutes.

[4] = target: T2, hDRD2; assay: cell-based; design: host or cells: 'Cells expressing hDRD2'; conditions: for Emax: read-out: hDRD2 %Emax ± SEM
Method: as §1, §2

[5] = CHO-K1 cell membranes, […] [3H]-spiperone, 60 minutes at 25°C, read-out: hDRD2 Ki (nM) ± SEM

T1 sequence (P30874 whole entry): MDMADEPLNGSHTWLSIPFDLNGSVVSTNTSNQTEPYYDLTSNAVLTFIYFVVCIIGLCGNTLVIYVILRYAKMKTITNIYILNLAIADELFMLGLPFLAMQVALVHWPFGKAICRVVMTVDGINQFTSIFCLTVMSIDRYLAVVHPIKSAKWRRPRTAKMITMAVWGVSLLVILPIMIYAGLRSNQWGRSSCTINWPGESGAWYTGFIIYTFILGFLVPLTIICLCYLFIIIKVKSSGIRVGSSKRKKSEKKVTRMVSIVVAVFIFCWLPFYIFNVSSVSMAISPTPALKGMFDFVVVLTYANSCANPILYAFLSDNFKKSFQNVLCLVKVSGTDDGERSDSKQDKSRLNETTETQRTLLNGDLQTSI
T2 sequence (P14416 whole entry): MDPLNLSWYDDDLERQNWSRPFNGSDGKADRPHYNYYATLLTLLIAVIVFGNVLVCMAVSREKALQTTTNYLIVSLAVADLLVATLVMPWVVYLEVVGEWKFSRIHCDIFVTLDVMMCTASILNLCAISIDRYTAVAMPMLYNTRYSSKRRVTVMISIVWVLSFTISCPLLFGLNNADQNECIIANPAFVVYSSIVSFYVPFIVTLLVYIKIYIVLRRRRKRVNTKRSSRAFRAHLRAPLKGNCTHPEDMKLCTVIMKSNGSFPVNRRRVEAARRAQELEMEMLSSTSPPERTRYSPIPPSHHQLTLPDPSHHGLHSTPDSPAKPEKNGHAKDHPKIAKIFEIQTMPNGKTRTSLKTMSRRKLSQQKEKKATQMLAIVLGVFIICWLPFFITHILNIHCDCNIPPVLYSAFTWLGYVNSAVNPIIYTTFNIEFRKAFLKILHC

C[C@@H](O)[C@@H]1NC(=O)[C@H](CCCCN)NC(=O)[C@@H](Cc2c[nH]c3ccccc23)NC(=O)[C@H](Cc2ccccc2)NC(=O)[C@H](Cc2ccccc2)NC(=O)[C@H](CCCNC(=N)N)NC(=O)[C@H](NCCSC[C@@H]2C[C@@H]3c4cccc5[nH]cc(c45)C[C@H]3N(C)C2)CCCCNC(=O)[C@H](Cc2cccc(F)c2)NC1=O [Compound 6C, Dop1-psi(CH2NH)-cyclo(DLys-Arg-Phe-Phe-DTrp-Lys-Thr-3FPhe)]
Ki [1]: 0.15 ± 0.04 nM
Ki [2]: 30.3 ± 3.7 nM
EC50 [3]: 16.2 ± 5.9 nM
EC50 [4]: 60 ± 21.7 nM
Emax [4]: 94.4 ± 5.1%

C[C@@H](O)[C@@H]1NC(=O)[C@H](CCCCN)NC(=O)[C@@H](Cc2c[nH]c3ccccc23)NC(=O)[C@H](Cc2ccccc2)NC(=O)[C@H](Cc2ccccc2)NC(=O)[C@H](CCCNC(=N)N)NC(=O)[C@H](N(CCSC[C@@H]2C[C@@H]3c4cccc5[nH]cc(c45)C[C@H]3N(C)C2)CCSC[C@@H]2C[C@@H]3c4cccc5[nH]cc(c45)C[C@H]3N(C)C2)CCCCNC(=O)[C@H](Cc2ccc(F)cc2)NC1=O [Compound 39, bis[Dop1-psi(CH2N)]-cyclo(DLys-Arg-Phe-Phe-DTrp-Lys-Thr-4FPhe)] (RFF[dW]KT[Phe(4-F)]; linker N-C via X1)
Ki [1]: 3.72 ± 2.01 nM
Ki [2]: 330 ± 59.5 nM
EC50 [3]: 25.9 ± 6.9 nM
EC50 [4]: 114 ± 24.4 nM
Emax [4]: 95.7 ± 2.4%

C[C@@H](O)[C@@H]1NC(=O)[C@H](CCCCN)NC(=O)[C@@H](Cc2c[nH]c3ccccc23)NC(=O)[C@H](Cc2ccncc2)NC(=O)[C@H](Cc2ccccc2)NC(=O)[C@H](CCCNC(=N)N)NC(=O)[C@H](NC[C@H](CCCCNC(=O)C[S+]([O-])C[C@@H]2C[C@@H]3c4cccc5[nH]cc(c45)C[C@H]3N(C)C2)NC(=O)C[S+]([O-])C[C@@H]2C[C@@H]3c4cccc5[nH]cc(c45)C[C@H]3N(C)C2)CCCCNC(=O)[C@H](Cc2ccc(O)cc2)NC1=O (stereo partly drawn) [Compound 16, Dop1(SO)-Lys[Dop1(SO)]-psi(CH2NH)-cyclo(DLys-Arg-Phe-4Pal-DTrp-Lys-Thr-Tyr)]
Ki [1]: 0.04 ± 0.03 nM
Ki [2]: 22.5 ± 1.9 nM
EC50 [3]: 6 ± 0.8 nM
EC50 [4]: 4.7 ± 0.5 nM
Emax [4]: 95.2 ± 1.7%

CC(=O)N(CCCNC(CN[C@@H]1CCCCNC(=O)[C@H](Cc2ccc(F)cc2)NC(=O)[C@H]([C@@H](C)O)NC(=O)[C@H](CCCCN)NC(=O)[C@@H](Cc2c[nH]c3ccccc23)NC(=O)[C@H](Cc2ccccc2)NC(=O)[C@H](Cc2ccccc2)NC(=O)[C@H](CCCNC(=N)N)NC1=O)Cc1ccc(O)cc1)C[C@@H]1C[C@@H]2c3cccc4[nH]cc(c34)C[C@H]2N(C)C1 (single isomer, unassigned) [Compound 28A, 3-[N-acetyl-N-(D-6-methyl-8β-ergolinylmethyl)]-aminopropionyl-psi(CH2NH)-Tyr-psi(CH2NH)-cyclo(DLys-Arg-Phe-Phe-DTrp-Lys-Thr-4FPhe)]
Ki [1]: 0.04 ± 0.02 nM
Ki [2]: 14 ± 3.4 nM
Emax [4]: 79.7 ± 11.4%

C[C@@H](O)[C@@H]1NC(=O)[C@H](CCCCN)NC(=O)[C@@H](Cc2c[nH]c3ccccc23)NC(=O)[C@H](Cc2ccccc2)NC(=O)[C@H](Cc2ccccc2)NC(=O)[C@H](CCCNC(=N)N)NC(=O)[C@H](NC[C@H](Cc2ccc(O)cc2)NC(=O)CSC[C@@H]2C[C@@H]3c4cccc5[nH]cc(c45)C[C@H]3N(C)C2)CCCNC(=O)[C@H](Cc2ccccc2)NC1=O [Compound 30, Dop1-Tyr-psi(CH2NH)-cyclo(DOrn-Arg-Phe-Phe-DTrp-Lys-Thr-Phe)]
Ki [1]: 0.4 ± 0.06 nM
EC50 [3]: 13.1 ± 4.2 nM

C[C@@H](O)[C@@H]1NC(=O)[C@H](CCCCN)NC(=O)[C@@H](Cc2c[nH]c3ccccc23)NC(=O)[C@H](Cc2ccccc2)NC(=O)[C@H](Cc2ccccc2)NC(=O)[C@H](CCCNC(=N)N)NC(=O)[C@H](NC(=O)CSC[C@@H]2C[C@@H]3c4cccc5[nH]cc(c45)C[C@H]3N(C)C2)CCCCNC(=O)[C@H](Cc2ccc(F)cc2)NC1=O [Compound 34, Dop1-cyclo(DLys-Arg-Phe-Phe-DTrp-Lys-Thr-4FPhe)] (X2-[dK]RFF[dW]KT[Phe(4-F)]; lactam 1-C)
Ki [1]: 4.55 ± 1.15 nM
Ki [2]: 299 nM
EC50 [3]: 14.6 ± 5.7 nM
EC50 [4]: 72.7 nM
Emax [4]: 77.9%

C[C@@H](O)[C@@H]1NC(=O)[C@H](CCCCN)NC(=O)[C@@H](Cc2c[nH]c3ccccc23)NC(=O)[C@H](Cc2ccccc2)NC(=O)[C@H](Cc2ccccc2)NC(=O)[C@H](CCCNC(=N)N)NC(=O)[C@H](NCCCC[C@@H]2C[C@@H]3c4cccc5[nH]cc(c45)C[C@H]3N(C)C2)CCCCNC(=O)[C@H](Cc2ccc(F)cc2)NC1=O [Compound 2, (D-6-methyl-8β-ergolinyl)-butanoyl-psi(CH2NH)-cyclo(DLys-Arg-Phe-Phe-DTrp-Lys-Thr-4FPhe)]
Ki [1]: 0.79 ± 0.06 nM
Ki [2]: 6.9 ± 0.4 nM
EC50 [3]: 21.1 ± 6.7 nM
EC50 [4]: 55.7 ± 12.4 nM
Emax [4]: 84 ± 7.6%

C[C@@H](O)[C@@H]1NC(=O)[C@H](CCCCN)NC(=O)[C@@H](Cc2c[nH]c3ccccc23)NC(=O)[C@H](Cc2ccccc2)NC(=O)[C@H](Cc2ccccc2)NC(=O)[C@H](CCCNC(=N)N)NC(=O)[C@H](NC[C@@H](Cc2ccc(O)cc2)NC(=O)CSC[C@@H]2C[C@@H]3c4cccc5[nH]cc(c45)C[C@H]3N(C)C2)CCCCNC(=O)[C@H](Cc2ccccc2)NC1=O [Compound 41, Dop1-DTyr-psi(CH2NH)-cyclo(DLys-Arg-Phe-Phe-DTrp-Lys-Thr-Phe)]
Ki ([1]; CHO-K1 cell membranes, 0.05 nM [125I-Tyr]-seglitide, 60 minutes at 25°C, read-out: hSSTR2 Ki (nM) ± SEM): 0.37 nM
Ki [2, 5]: 8.5 ± 3.6 nM
Emax [4]: 91.2%

C[C@@H](O)[C@@H]1NC(=O)[C@H](CCCCN)NC(=O)[C@@H](Cc2c[nH]c3ccccc23)NC(=O)[C@H](Cc2ccccc2)NC(=O)[C@H](Cc2ccccc2)NC(=O)[C@H](CCCNC(=N)N)NC(=O)[C@H](NCCSC[C@@H]2C[C@@H]3c4cccc5[nH]cc(c45)C[C@H]3N(C)C2)CCCCNC(=O)[C@H](Cc2cc(F)cc(F)c2)NC1=O [Compound 6B, Dop1-psi(CH2NH)-cyclo(DLys-Arg-Phe-Phe-DTrp-Lys-Thr-3,5FPhe)]
Ki [1]: 0.25 ± 0.03 nM
Ki [2]: 25.4 ± 7.9 nM
EC50 [3]: 17 ± 6.5 nM
EC50 [4]: 112 ± 27.8 nM
Emax [4]: 85.1 ± 9.6%

C[C@@H](O)[C@@H]1NC(=O)[C@H](CCCCN)NC(=O)[C@@H](Cc2c[nH]c3ccccc23)NC(=O)[C@H](Cc2ccccc2)NC(=O)[C@H](Cc2ccccc2)NC(=O)[C@H](CCCNC(=N)N)NC(=O)[C@@H](NC[C@H](Cc2ccc(O)cc2)NC(=O)CSC[C@@H]2C[C@@H]3c4cccc5[nH]cc(c45)C[C@H]3N(C)C2)CCCCNC(=O)[C@H](Cc2ccccc2)NC1=O [Compound 31, Dop1-Tyr-psi(CH2NH)-cyclo(Lys-Arg-Phe-Phe-DTrp-Lys-Thr-Phe)]
Ki [1]: 0.51 ± 0.1 nM
Ki [2]: 38.6 ± 28.6 nM
EC50 [3]: 13.3 ± 0.9 nM
EC50 [4]: 37.7 ± 4.6 nM
Emax [4]: 94.8 ± 9.7%

CC(=O)N(CCCN[C@@H]1CCCCNC(=O)[C@H](Cc2ccc(F)cc2)NC(=O)[C@H]([C@@H](C)O)NC(=O)[C@H](CCCCN)NC(=O)[C@@H](Cc2c[nH]c3ccccc23)NC(=O)[C@H](Cc2ccccc2)NC(=O)[C@H](Cc2ccccc2)NC(=O)[C@H](CCCNC(=N)N)NC1=O)C[C@@H]1C[C@@H]2c3cccc4[nH]cc(c34)C[C@H]2N(C)C1 [Compound 29A, 3-[N-acetyl-(D-6-methyl-8β-ergolinylmethyl)]-aminopropionyl-psi(CH2NH)-cyclo(DLys-Arg-Phe-Phe-DTrp-Lys-Thr-4FPhe)]
Ki [1]: 0.13 nM
Ki [2]: 46.8 ± 7.4 nM
EC50 [3]: 8.2 ± 0.7 nM
EC50 [4]: 62.7 ± 14.8 nM
Emax [4]: 82.8 ± 6.7%

C[C@@H](O)[C@@H]1NC(=O)[C@H](CCCCN)NC(=O)[C@@H](Cc2c[nH]c3ccccc23)NC(=O)[C@H](Cc2ccccc2)NC(=O)[C@H](Cc2ccccc2)NC(=O)[C@H](CCCNC(=N)N)NC(=O)[C@H](NC(=O)[C@H](CCCCNC(=O)CSC[C@@H]2C[C@@H]3c4cccc5[nH]cc(c45)C[C@H]3N(C)C2)NC(=O)CSC[C@@H]2C[C@@H]3c4cccc5[nH]cc(c45)C[C@H]3N(C)C2)CCNC(=O)[C@H](Cc2ccccc2)NC1=O [Reference Compound C, Dopl-Lys(Dopl)-cyclo(DDab-Arg-Phe-Phe-DTrp-Lys-Thr-Phe), reference compound] (X2-K(X2)[dDab]RFF[dW]KTF; lactam 2-C (inferred))
Emax ([3]; read-out: hSSTR2 %Emax ± SEM): 60.6 ± 3.2%
Emax [4]: 101 ± 0.8%

C[C@@H](O)[C@@H]1NC(=O)[C@H](CCCCN)NC(=O)[C@@H](Cc2c[nH]c3ccccc23)NC(=O)[C@H](Cc2cccnc2)NC(=O)[C@H](Cc2ccccc2)NC(=O)[C@H](CCCNC(=N)N)NC(=O)[C@H](NC[C@H](Cc2ccc(O)cc2)NC(=O)CSC[C@@H]2C[C@@H]3c4cccc5[nH]cc(c45)C[C@H]3N(C)C2)CCCCNC(=O)[C@H](Cc2ccccc2)NC1=O [Compound 38, Dop1-Tyr-psi(CH2NH)-cyclo(DLys-Arg-Phe-3Pal-DTrp-Lys-Thr-Phe)]
Ki [2, 5]: 179 ± 113 nM
Emax [4]: 97.5 ± 0.3%

C[C@@H](O)[C@@H]1NC(=O)[C@H](CCCCN)NC(=O)[C@@H](Cc2c[nH]c3ccccc23)NC(=O)[C@H](Cc2ccccc2)NC(=O)[C@H](Cc2ccccc2)NC(=O)[C@H](CCCNC(=N)N)NC(=O)[C@H](N(CCSC[C@@H]2C[C@@H]3c4cccc5[nH]cc(c45)C[C@H]3N(C)C2)CCSC[C@@H]2C[C@@H]3c4cccc5[nH]cc(c45)C[C@H]3N(C)C2)CCCCNC(=O)[C@H](Cc2ccccc2)NC1=O [Compound 40, bis[Dop1-psi(CH2N)]-cyclo(DLys-Arg-Phe-Phe-DTrp-Lys-Thr-Phe)] (RFF[dW]KTF; linker N-C via X1)
Ki [1]: 3.17 ± 1.41 nM
EC50 [3]: 27 ± 6.5 nM
EC50 [4]: 123 ± 6.5 nM
Emax [4]: 91.5%
